Measurements as given in EPA's CvTdb concentration-time database.

Experiments:
Assay in all cases: concentration in plasma after dosing
[1] = tested on: Rat; details: dosed: 2-Hydroxy-4-methoxybenzophenone, 100 mg/kg, oral, Male, F344
[2] = tested on: Rat; details: dosed: 2-Hydroxy-4-methoxybenzophenone, 500 mg/kg, oral, Female, F344
[3] = tested on: Mouse; details: dosed: 2-Hydroxy-4-methoxybenzophenone, 100 mg/kg, oral, Female, B6C3F1
[4] = tested on: Rat
[5] = tested on: Rat; details: dosed: Nitrite, 20 mg/kg, iv, Male, F344
[6] = tested on: Rat; details: 0.5 h; dosed: Nitrite; 40 mg/kg; oral; Female; F344
[7] = tested on: Rat; details: dosed: Nitrite, 80 mg/kg, oral, Female, F344

COc1ccc(C(=O)c2ccccc2)c(O)c1 [2-Hydroxy-4-methoxybenzophenone]
concentration in plasma ([1]; 0.25 h): 0.0889 µg/mL
concentration in plasma ([1]; 4 h): 0.0261 µg/mL
concentration in plasma ([2]; 2.5 min): 0.0473 µg/mL
concentration in plasma ([2]; 4 h): 0.24 µg/mL
concentration in plasma ([3]; 2.5 min): 0.0296 µg/mL
concentration in plasma ([3]; 10 min): 0.0623 µg/mL
concentration in plasma ([3]; 0.25 h): 0.151 µg/mL
concentration in plasma ([3]; 2 h): 0.0139 µg/mL
concentration in plasma ([3]; 3 h): 0.00913 µg/mL
concentration in plasma ([4]; 2.5 min, dosed: 2-Hydroxy-4-methoxybenzophenone, 500 mg/kg, oral, Female, F344): 0.00713 µg/mL
concentration in plasma ([4]; 10 min, dosed: 2-Hydroxy-4-methoxybenzophenone, 8 mg/kg, iv, Female, F344): 2.54 µg/mL
concentration in plasma ([4]; 10 min, dosed: 2-Hydroxy-4-methoxybenzophenone, 8 mg/kg, iv, Male, F344): 0.0725 µg/mL
concentration in plasma ([4]; 10 min, dosed: 2-Hydroxy-4-methoxybenzophenone, 100 mg/kg, oral, Female, F344): 0.113 µg/mL
concentration in plasma ([4]; 10 min, dosed: 2-Hydroxy-4-methoxybenzophenone, 100 mg/kg, oral, Male, F344): 0.14 µg/mL
concentration in plasma ([4]; 10 min, dosed: 2-Hydroxy-4-methoxybenzophenone, 250 mg/kg, oral, Female, F344): 0.0327 µg/mL
concentration in plasma ([4]; 10 min, dosed: 2-Hydroxy-4-methoxybenzophenone, 250 mg/kg, oral, Male, F344): 0.0194 µg/mL
concentration in plasma ([4]; 10 min, dosed: 2-Hydroxy-4-methoxybenzophenone, 500 mg/kg, oral, Female, F344): 0.113 µg/mL
concentration in plasma ([4]; 10 min, dosed: 2-Hydroxy-4-methoxybenzophenone, 500 mg/kg, oral, Male, F344): 0.116 µg/mL
concentration in plasma ([4]; 0.25 h, dosed: 2-Hydroxy-4-methoxybenzophenone, 8 mg/kg, iv, Female, F344): 1.56 µg/mL
concentration in plasma ([4]; 0.25 h, dosed: 2-Hydroxy-4-methoxybenzophenone, 8 mg/kg, iv, Male, F344): 1.86 µg/mL
concentration in plasma ([4]; 0.25 h, dosed: 2-Hydroxy-4-methoxybenzophenone, 100 mg/kg, oral, Female, F344): 0.0865 µg/mL
concentration in plasma ([4]; 0.25 h, dosed: 2-Hydroxy-4-methoxybenzophenone, 100 mg/kg, oral, Male, F344): 0.171 µg/mL
concentration in plasma ([4]; 0.25 h, dosed: 2-Hydroxy-4-methoxybenzophenone, 250 mg/kg, oral, Female, F344): 0.331 µg/mL
concentration in plasma ([4]; 0.25 h, dosed: 2-Hydroxy-4-methoxybenzophenone, 250 mg/kg, oral, Male, F344): 0.0828 µg/mL
concentration in plasma ([4]; 0.25 h, dosed: 2-Hydroxy-4-methoxybenzophenone, 500 mg/kg, oral, Female, F344): 0.231 µg/mL
concentration in plasma ([4]; 0.25 h, dosed: 2-Hydroxy-4-methoxybenzophenone, 500 mg/kg, oral, Male, F344): 0.614 µg/mL
concentration in plasma ([4]; 2 h, dosed: 2-Hydroxy-4-methoxybenzophenone, 8 mg/kg, iv, Female, F344): 0.0756 µg/mL
concentration in plasma ([4]; 2 h, dosed: 2-Hydroxy-4-methoxybenzophenone, 8 mg/kg, iv, Male, F344): 0.0992 µg/mL
concentration in plasma ([4]; 3 h, dosed: 2-Hydroxy-4-methoxybenzophenone, 100 mg/kg, oral, Female, F344): 0.0145 µg/mL
concentration in plasma ([4]; 3 h, dosed: 2-Hydroxy-4-methoxybenzophenone, 100 mg/kg, oral, Male, F344): 0.0173 µg/mL
concentration in plasma ([4]; 3 h, dosed: 2-Hydroxy-4-methoxybenzophenone, 250 mg/kg, oral, Female, F344): 0.0719 µg/mL
concentration in plasma ([4]; 3 h, dosed: 2-Hydroxy-4-methoxybenzophenone, 250 mg/kg, oral, Male, F344): 0.0546 µg/mL
concentration in plasma ([4]; 4 h, dosed: 2-Hydroxy-4-methoxybenzophenone, 8 mg/kg, iv, Female, F344): 0.0368 µg/mL
concentration in plasma ([4]; 4 h, dosed: 2-Hydroxy-4-methoxybenzophenone, 100 mg/kg, oral, Female, F344): 0.0106 µg/mL
concentration in plasma ([4]; 4 h, dosed: 2-Hydroxy-4-methoxybenzophenone, 100 mg/kg, oral, Male, F344): 0.0424 µg/mL
concentration in plasma ([4]; 4 h, dosed: 2-Hydroxy-4-methoxybenzophenone, 250 mg/kg, oral, Female, F344): 0.0871 µg/mL
concentration in plasma ([4]; 4 h, dosed: 2-Hydroxy-4-methoxybenzophenone, 250 mg/kg, oral, Male, F344): 0.0652 µg/mL
concentration in plasma ([4]; 4 h, dosed: 2-Hydroxy-4-methoxybenzophenone, 500 mg/kg, oral, Female, F344): 0.452 µg/mL
concentration in plasma ([4]; 4 h, dosed: 2-Hydroxy-4-methoxybenzophenone, 500 mg/kg, oral, Male, F344): 0.45 µg/mL
concentration in plasma ([4]; 6 h, dosed: 2-Hydroxy-4-methoxybenzophenone, 500 mg/kg, oral, Male, F344): 0.225 µg/mL
concentration in plasma ([4]; 10 h, dosed: 2-Hydroxy-4-methoxybenzophenone, 8 mg/kg, iv, Male, F344): 0.0701 µg/mL
concentration in plasma ([4]; 10 h, dosed: 2-Hydroxy-4-methoxybenzophenone, 500 mg/kg, oral, Female, F344): 0.0497 µg/mL
concentration in plasma ([4]; 10 h, dosed: 2-Hydroxy-4-methoxybenzophenone, 500 mg/kg, oral, Male, F344): 0.0652 µg/mL

O=N[O-] [Nitrite]
concentration in plasma ([5]; 10 min): 15.4 µg/mL
concentration in plasma ([5]; 1.25 h): 2 µg/mL
concentration in plasma [6]: 11.6 µg/mL
concentration in plasma ([7]; 10 min): 10.8 µg/mL
concentration in plasma ([7]; 6 h): 1.7 µg/mL
concentration in plasma ([4]; 2 min, dosed: Nitrite, 20 mg/kg, iv, Male, F344): 14.8 µg/mL
concentration in plasma ([4]; 2 min, dosed: Nitrite, 40 mg/kg, oral, Female, F344): 3.1 µg/mL
concentration in plasma ([4]; 2 min, dosed: Nitrite, 40 mg/kg, oral, Female, Harlan Sprague-Dawley): 2.2 µg/mL
concentration in plasma ([4]; 2 min, dosed: Nitrite, 80 mg/kg, oral, Female, F344): 8.2 µg/mL
concentration in plasma ([4]; 5 min, dosed: Nitrite, 20 mg/kg, iv, Male, F344): 3.1 µg/mL
concentration in plasma ([4]; 5 min, dosed: Nitrite, 40 mg/kg, oral, Female, F344): 4.8 µg/mL
concentration in plasma ([4]; 5 min, dosed: Nitrite, 40 mg/kg, oral, Female, Harlan Sprague-Dawley): 1.7 µg/mL
concentration in plasma ([4]; 5 min, dosed: Nitrite, 80 mg/kg, oral, Female, F344): 12.4 µg/mL
concentration in plasma ([4]; 10 min, dosed: Nitrite, 20 mg/kg, iv, Male, F344): 4.3 µg/mL
concentration in plasma ([4]; 10 min, dosed: Nitrite, 40 mg/kg, oral, Female, F344): 5.9 µg/mL
concentration in plasma ([4]; 10 min, dosed: Nitrite, 40 mg/kg, oral, Female, Harlan Sprague-Dawley): 2.5 µg/mL
concentration in plasma ([4]; 10 min, dosed: Nitrite, 40 mg/kg, oral, Male, F344): 3.4 µg/mL
concentration in plasma ([4]; 10 min, dosed: Nitrite, 80 mg/kg, oral, Female, F344): 7.5 µg/mL
concentration in plasma ([4]; 20 min, dosed: Nitrite, 20 mg/kg, iv, Male, F344): 0.9 µg/mL
concentration in plasma ([4]; 0.5 h, dosed: Nitrite, 20 mg/kg, iv, Male, F344): 2.6 µg/mL
concentration in plasma ([4]; 0.5 h, dosed: Nitrite, 40 mg/kg, oral, Female, F344): 6 µg/mL
concentration in plasma ([4]; 0.5 h, dosed: Nitrite, 40 mg/kg, oral, Male, F344): 1.9 µg/mL
concentration in plasma ([4]; 0.5 h, dosed: Nitrite, 80 mg/kg, oral, Female, F344): 11.3 µg/mL
concentration in plasma ([4]; 0.75 h, dosed: Nitrite, 20 mg/kg, iv, Male, F344): 2.4 µg/mL
concentration in plasma ([4]; 1 h, dosed: Nitrite, 20 mg/kg, iv, Male, F344): 2 µg/mL
concentration in plasma ([4]; 1 h, dosed: Nitrite, 40 mg/kg, oral, Female, F344): 2.9 µg/mL
concentration in plasma ([4]; 1 h, dosed: Nitrite, 40 mg/kg, oral, Male, F344): 3.4 µg/mL
concentration in plasma ([4]; 1 h, dosed: Nitrite, 80 mg/kg, oral, Female, F344): 9.7 µg/mL
concentration in plasma ([4]; 2 h, dosed: Nitrite, 40 mg/kg, oral, Female, F344): 2.6 µg/mL
concentration in plasma ([4]; 2 h, dosed: Nitrite, 80 mg/kg, oral, Female, F344): 7.5 µg/mL
concentration in plasma ([4]; 4 h, dosed: Nitrite, 80 mg/kg, oral, Female, F344): 2.4 µg/mL
concentration in plasma ([4]; 6 h, dosed: Nitrite, 80 mg/kg, oral, Female, F344): 2 µg/mL
concentration in plasma ([4]; 8 h, dosed: Nitrite, 80 mg/kg, oral, Female, F344): 1.7 µg/mL
concentration in plasma ([4]; 10 h, dosed: Nitrite, 80 mg/kg, oral, Female, F344): 1.7 µg/mL
